Experiment: Solubility of K Rimar in water
Details: 20° C. (RT)
Text: The solubility of the potassium salt of perfluorobutanesulfonic acid, K Rimar, is described in Table 2.

SMILES: O=S(=O)([O-])C(F)(F)C(F)(F)C(F)(F)C(F)(F)F.[K+] [K Rimar, Perfluorobutane sulfonate, potassium salt]
- Concentration at which K Rimar is soluble: less than 0.5 g

— patent US20080269526A1, “METHODS OF MAKING AN […]” (SAIC […], IP B.V., priority 2004, published 2008)
